These results are taken from ChEMBL document CHEMBL1123942, “Effect of acyclic pyrimidines related to 9-[(1,3-dihydroxy-2-propoxy)methyl]guanine on herpesviruses” (J Med Chem, 1988).

Assay [1] deals with Cytomegalovirus. As to the kind of experiment: Inhibition of growth of human cytomegalovirus (HCMV) was determined by plaque reduction assay in human lung fibroblast cell line. In kind it is functional, organism-based. The note with it: Human betaherpesvirus 5, Fibroblast. A general note: In a plaque reduction assay, fewer plaques than in the control indicate reduced infectivity or spread.

A further assay deals with Human alphaherpesvirus 3. Briefly: Inhibition of growth of varicella zoster virus(VZV) by plaque reduction assay in vero cell line. The assay is classed as functional, organism-based. Conditions: Human alphaherpesvirus 3, Vero.
Assay [2] has as its system Human alphaherpesvirus 1. Briefly: (§1) Inhibition of growth of herpes simplex virus (HSV-1) by plaque reduction assay in vero cell line. Conditions: Human alphaherpesvirus 1, Vero. In kind it is functional, organism-based.
For assay [3], the system named is Cytomegalovirus. Briefly: Inhibition of growth of human cytomegalovirus (HCMV) by plaque reduction assay in human lung fibroblast cell line. The assay is classed as functional, organism-based. Conditions: Human betaherpesvirus 5, Fibroblast.
For a further assay, the system named is Human alphaherpesvirus 2. As to the kind of experiment: Inhibition of growth of herpes simplex virus (HSV-2) by plaque reduction assay in vero cell line. In kind it is functional, organism-based. The note with it: Human alphaherpesvirus 2, Vero.
Assay [4] concerns Cytomegalovirus. As to the kind of experiment: Inhibition of growth of human cytomegalovirus (HCMV) was determined by plaque reduction assay in human foreskin fibroblast cell line. In kind it is functional, organism-based. The note with it: Human betaherpesvirus 5, Fibroblast.
Assay [5] concerns Human alphaherpesvirus 1. The description is as §1. The note with it: Human alphaherpesvirus 1, Vero. The assay is classed as functional, organism-based, herpes simplex vir.
The test system of assay [6] is Cytomegalovirus. Briefly: Inhibition of growth of human cytomegalovirus (HCMV) was determined by plaque reduction assay in Detroit cells. In kind it is functional, organism-based. The note with it: Human betaherpesvirus 5, Detroit.

Bounds are passed on as bounds.

Consider `Cc1cn(COC(CO)CO)c(=O)[nH]c1=O`, for which the half-inhibitory concentration (IC50) in the assay with Cytomegalovirus [1] is more than 250 µM; in the assay on Human alphaherpesvirus 3, more than 100 µM.

As to `Nc1nc(=O)n(COC(CO)CO)cc1I`, the IC50 in the assay on Cytomegalovirus [1] and in the assay on Human alphaherpesvirus 3 was more than 100 µM in each case.

Turning to `Nc1cn(COC(CO)CO)c(=O)[nH]c1=O`, in the assay with Human alphaherpesvirus 3, the IC50 was more than 100 µM.

Regarding `CN(C)c1ccn(COC(CO)CO)c(=O)n1`, the IC50 in the assay with Human alphaherpesvirus 1 [2], in the assay on Cytomegalovirus [1] and in the assay on Human alphaherpesvirus 3 was more than 100 µM in each case.

In the assay on Cytomegalovirus [1], `Nc1nc(=O)ccn1COC(CO)CO` registered a 50% inhibitory concentration (IC50) of more than 100 µM.

The compound `Nc1ccn(COC(CO)CO)c(=S)n1` registered an IC50 in the assay on Cytomegalovirus [1] of more than 100 µM.

Regarding `Nc1ccn(COC(CO)CO)c(=O)n1`, the IC50 with Human alphaherpesvirus 1 [2] stood at 140 µM; in the assay with Human alphaherpesvirus 3 it was 17.1 µM; with Cytomegalovirus [3], 11.2 µM; in the assay on Human alphaherpesvirus 2, 50 µM.

`Nc1ncn(COC(CO)CO)c(=O)n1`: the IC50 is more than 25 µM in the assay with Cytomegalovirus [4], 100 µM in the assay on Cytomegalovirus [1] and more than 100 µM in the assay on Human alphaherpesvirus 2.

Regarding `O=c1ccn(COC(CO)CO)c(=O)[nH]1`, the 50% inhibitory concentration (IC50) in the assay on Cytomegalovirus [1] was more than 250 µM; with Human alphaherpesvirus 3, more than 100 µM.

As for `Cc1cn(COC(CO)CO)c(=O)nc1N`, the IC50 with Cytomegalovirus [1] and in the assay on Human alphaherpesvirus 3 was more than 100 µM each time.

`COC(=O)CC(CC(=O)OC)OC[n+]1ccc(N)nc1` displayed an IC50 in the assay with Cytomegalovirus [1] of more than 100 µM.

For the compound `Nc1nc2c(ncn2COC(CO)CO)c(=O)[nH]1` [GANCICLOVIR], the IC50 was 0.1 µM in the assay with Human alphaherpesvirus 1 [2], 3.4 µM in the assay with Cytomegalovirus [1], 2.8 µM with Human alphaherpesvirus 3 and 0.1 µM with Human alphaherpesvirus 2.

As for `O=c1[nH]c(=O)n(COC(CO)CO)cc1Br`, the IC50 in the assay with Cytomegalovirus [1] and in the assay on Human alphaherpesvirus 3 was more than 100 µM in each case.

For `O=c1[nH]c(=O)n(COC(CO)CO)cc1I` [IODACYCLUR], the 50% inhibitory concentration (IC50) in the assay with Human alphaherpesvirus 1 [5], in the assay with Human alphaherpesvirus 3 and in the assay with Cytomegalovirus [6] was more than 100 µM each time.

The compound `Nc1nc(=O)n(COC(CO)CO)cc1F` showed an IC50 in the assay with Cytomegalovirus [1] of 100 µM.

With `CNc1ccn(COC(CO)CO)c(=O)n1`, in the assay on Cytomegalovirus [1], the 50% inhibitory concentration (IC50) was more than 100 µM.

The IC50 is the concentration that gives 50% inhibition.
